Measurements taken from ChEMBL document CHEMBL1141975, “The development of potent and selective bisarylmaleimide GSK3 inhibitors” (Bioorg Med Chem Lett, 2005).
pIC50: −log10 of the molar value.

Key:
[1] = target: Glycogen synthase kinase-3 (Homo sapiens, UniProt P49840+P49841); assay: Inhibitory concentration against the Glycogen synthase kinase-3; assay type: protein assay
Homo sapiens [2] = organism: Homo sapiens; assay: IC50 ratio between PKCbeta II and GSK-3
Homo sapiens [3] = organism: Homo sapiens; assay: IC50 ratio between CDK4 and GSK-3
[4] = target: Glycogen synthase kinase-3 beta (Homo sapiens, UniProt P49841); assay: Inhibitory concentration to inhibit Ser396 phosphorylation of tau, a natural substrate of GSK-3 in SY5Y cells; assay type: functional, cell-based
Glycogen synthase kinase-3 beta, sequence (P49841 whole entry): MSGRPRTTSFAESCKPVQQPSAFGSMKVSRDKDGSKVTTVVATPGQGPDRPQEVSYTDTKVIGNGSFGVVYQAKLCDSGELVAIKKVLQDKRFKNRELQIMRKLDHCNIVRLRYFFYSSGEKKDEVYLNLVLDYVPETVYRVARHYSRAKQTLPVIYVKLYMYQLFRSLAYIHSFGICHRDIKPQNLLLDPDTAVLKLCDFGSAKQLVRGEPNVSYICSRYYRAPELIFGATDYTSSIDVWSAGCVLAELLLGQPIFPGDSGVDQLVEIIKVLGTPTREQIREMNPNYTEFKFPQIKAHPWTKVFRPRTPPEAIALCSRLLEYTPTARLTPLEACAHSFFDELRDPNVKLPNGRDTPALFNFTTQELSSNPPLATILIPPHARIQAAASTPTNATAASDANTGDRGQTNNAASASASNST

Compound	IC50 [1]	Selectivity (Homo sapiens [2])	Selectivity (Homo sapiens [3])	pIC50 [4]
O=C1NC(=O)C(c2cn3c4c(cccc24)CNCC3)=C1c1cccc2c1CCO2	130 nM			
O=C1NC(=O)C(c2cn3c4c(cccc24)CNCC3)=C1c1cccc2c1ccn2CCCO	27 nM	9	1	
O=C1NC(=O)C(c2cnc3cnccn23)=C1c1cn2c3c(cccc13)CN(C(=O)N1CCCCC1)CC2	2.1 nM	> 9500	8920	8.06
O=C1NC(=O)C(c2cnc3ncccn23)=C1c1cn2c3c(cccc13)CN(C(=O)N1CCOCC1)CC2	1.7 nM	> 11800	8580	6.53
O=C1NC(=O)C(c2cnc3ccccn23)=C1c1cn2c3c(cccc13)CN(C(=O)C1CCOCC1)CC2	0.8 nM	1740	2650	8.11
O=C1NC(=O)C(c2cn3c4c(cccc24)CNCC3)=C1c1ccc2c(c1)COC2	83 nM			
O=C1NC(=O)C(c2cn3c4c(cccc24)CNCC3)=C1c1ccc2c(c1)OCO2	27 nM	202	18	
O=C1NC(=O)C(c2cnc3ccccn23)=C1c1cn2c3c(cccc13)CNCC2	12 nM	28	13	
O=C1NC(=O)C(c2cn3c4c(cccc24)CNCC3)=C1c1cccc2c1OCC2	3.3 nM	53	7	
O=C1NC(=O)C(c2cnc3ccncn23)=C1c1cn2c3c(cccc13)CNCC2	330 nM	3	14	
O=C1NC(=O)C(c2cnc3cccnn23)=C1c1cn2c3c(cccc13)CN(C(=O)N1CCCCC1)CC2 [BISARYLMALEIMIDE 1]	1.6 nM	1300	1330	9.52
O=C1NC(=O)C(c2cnc3cnccn23)=C1c1cn2c3c(cccc13)CNCC2	60 nM	> 334	19	
O=C1NC(=O)C(c2cnc3cnccn23)=C1c1cn2c3c(cccc13)CN(C(=O)N1CCOCC1)CC2	3.2 nM	> 6300	4550	7.96
O=C1NC(=O)C(c2cnc3ccccn23)=C1c1cn2c3c(cccc13)CN(C(=O)N1CCCCC1)CC2	2 nM	281	2420	
O=C1NC(=O)C(c2cnc3ncccn23)=C1c1cn2c3c(cccc13)CN(C(=O)N1CCCCC1)CC2	1.9 nM	> 1060	10000	7.28
O=C1NC(=O)C(c2cn3c4c(cccc24)CNCC3)=C1c1coc2ccccc12	64 nM			
O=C1NC(=O)C(c2cnc3ncccn23)=C1c1cn2c3c(cccc13)CNCC2	120 nM	112	20	
O=C1NC(=O)C(c2cn3c4c(cccc24)CNCC3)=C1c1cccc2c1OCO2	13 nM	103	2	
O=C1NC(=O)C(c2ccn3ncccc23)=C1c1cn2c3c(cccc13)CN(C(=O)N1CCOCC1)CC2	1.3 nM		1900	
O=C1NC(=O)C(c2cn3c4c(cccc24)CNCC3)=C1c1cccc2sccc12	34 nM			
O=C1NC(=O)C(c2cnc3cccnn23)=C1c1cn2c3c(cccc13)CNCC2	4.8 nM	133	15	
O=C1NC(=O)C(c2cnc3ccccn23)=C1c1cn2c3c(cccc13)CN(C(=O)N1CCOCC1)CC2	1.3 nM			
O=C1NC(=O)C(c2ccn3ncccc23)=C1c1cn2c3c(cccc13)CNCC2	30 nM	18	10	
O=C1NC(=O)C(c2cnc3ccncn23)=C1c1cn2c3c(cccc13)CN(C(=O)N1CCOCC1)CC2	71 nM	> 282	> 282	

Now from value to compound:

IC50 [1]	Selectivity (Homo sapiens [2])	Selectivity (Homo sapiens [3])	pIC50 [4]	Compound
2.1 nM	108	92		O=C1NC(=O)C(c2cncc3ccoc23)=C1c1cn2c3c(cccc13)CN(C(=O)N1CCCCC1)CC2
19 nM	7	7		CC(=O)N1CCn2cc(C3=C(c4cccc5ccsc45)C(=O)NC3=O)c3cccc(c32)C1
1.1 nM	133	77		CC(=O)N1CCn2cc(C3=C(c4cccc5c4OCC5)C(=O)NC3=O)c3cccc(c32)C1
2.7 nM	89	35		CN(C)C(=O)N1CCn2cc(C3=C(c4cccc5ccoc45)C(=O)NC3=O)c3cccc(c32)C1
4.7 nM	235	370	7.42	CN(C)C(=O)N1CCn2cc(C3=C(c4ccn5ncccc45)C(=O)NC3=O)c3cccc(c32)C1
1 nM	375	98		CCC(=O)N1CCn2cc(C3=C(c4cncc5ccoc45)C(=O)NC3=O)c3cccc(c32)C1
3.2 nM	190	89		CN(C)C(=O)N1CCn2cc(C3=C(c4cccc5c4OCO5)C(=O)NC3=O)c3cccc(c32)C1
45 nM	15	1		O=C1NC(=O)C(c2cccc3ccsc23)=C1c1cn2c3c(cccc13)CNCC2
1.9 nM	457	483	6.95	CC(=O)N1CCn2cc(C3=C(c4cnc5ccccn45)C(=O)NC3=O)c3cccc(c32)C1
3.2 nM	54	6		O=C1NC(=O)C(c2cncc3ccoc23)=C1c1cn2c3c(cccc13)CNCC2
1.6 nM	635	907		CN(C)C(=O)N1CCn2cc(C3=C(c4cnc5ccccn45)C(=O)NC3=O)c3cccc(c32)C1
33 nM	28	1		Cn1ccc2c(C3=C(c4cn5c6c(cccc46)CNCC5)C(=O)NC3=O)cccc21
150 nM				O=C1NC(=O)C(c2cccc3cc[nH]c23)=C1c1cn2c3c(cccc13)CNCC2
2.5 nM	240	50		CC(=O)N1CCn2cc(C3=C(c4cccc5c4OCO5)C(=O)NC3=O)c3cccc(c32)C1
3.4 nM	183	5		O=C1NC(=O)C(c2cccc3ccoc23)=C1c1cn2c3c(cccc13)CNCC2
1.8 nM	522	2020	8.30	CC(C)C(=O)N1CCn2cc(C3=C(c4cnc5ccccn45)C(=O)NC3=O)c3cccc(c32)C1
41 nM	39	1		O=C1NC(=O)C(c2cn3c4c(cccc24)CNCC3)=C1c1cccc2occc12
1.2 nM		112		CN(C)C(=O)N1CCn2cc(C3=C(c4cncc5ccoc45)C(=O)NC3=O)c3cccc(c32)C1
1.5 nM	80	25		CC(=O)N1CCn2cc(C3=C(c4cccc5ccoc45)C(=O)NC3=O)c3cccc(c32)C1
0.9 nM	422	60		CC(=O)N1CCn2cc(C3=C(c4cncc5ccoc45)C(=O)NC3=O)c3cccc(c32)C1
0.8 nM		158		O=C1NC(=O)C(c2cncc3ccoc23)=C1c1cn2c3c(cccc13)CN(C(=O)N1CCOCC1)CC2 [BISARYLMALEIMIDE 2]
